Experiments:
Format in all cases: in vivo
[1] = system: oat, wild (wild oat, Avena fatua); assay: Test A preemergence soil spray, visual injury rating 0-100; settings: 10 days
Outline: (§1)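 Plants in a loam and sand soil blend were treated with each test chemical, in a non-phytotoxic solvent system including surfactant, either sprayed on seeded soil before emergence or applied after emergence at the one- to two-leaf stage. Ten days later in the greenhouse, plants were compared with untreated controls and visually rated from 0 (no effect) to 100 (complete control).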

[2] = system: corn (Zea mays); assay: as above; settings: 10 days
Outline: as §1

[3] = system: palmer (palmer amaranth, palmer pigweed, Amaranthus palmeri); assay: as above; settings: 10 days
Outline: as §1

[4] = system: ragweed (common ragweed, Ambrosia artemisiifolia); assay: as above; settings: 10 days
Outline: as §1

[5] = system: ryegrass, Italian (italian ryegrass, Lolium multiflorum); assay: as above; settings: 10 days
Outline: as §1

[6] = system: kochia (Bassia scoparia); assay: as above; settings: 10 days
Outline: as §1

[7] = system: soybean (Glycine max); assay: as above; settings: 10 days
Outline: as §1

[8] = system: green foxtail (Setaria viridis); assay: as above; settings: 10 days
Outline: as §1

[9] = system: wheat (Triticum aestivum); assay: as above; settings: 10 days
Outline: as §1

[10] = system: blackgrass (Alopecurus myosuroides); assay: as above; settings: 10 days
Outline: as §1

[11] = system: barnyardgrass (Echinochloa crus-galli); assay: as above; settings: 10 days
Outline: as §1

[12] = system: oat, wild (wild oat, Avena fatua); assay: Test A postemergence application, visual injury rating 0-100
Outline: as §1

[13] = system: corn (Zea mays); assay: as above
Outline: as §1

[14] = system: galium (catchweed bedstraw, Galium aparine); assay: as above
Outline: as §1

[15] = system: palmer (palmer amaranth, palmer pigweed, Amaranthus palmeri); assay: as above
Outline: as §1

[16] = system: ragweed (common ragweed, Ambrosia artemisiifolia); assay: as above
Outline: as §1

[17] = system: ryegrass, Italian (italian ryegrass, Lolium multiflorum); assay: as above
Outline: as §1

[18] = system: kochia (Bassia scoparia); assay: as above
Outline: as §1

[19] = system: soybean (Glycine max); assay: as above
Outline: as §1

[20] = system: horseweed (Erigeron canadensis); assay: as above
Outline: as §1

[21] = system: green foxtail (Setaria viridis); assay: as above
Outline: as §1

[22] = system: wheat (Triticum aestivum); assay: as above
Outline: as §1

[23] = system: blackgrass (Alopecurus myosuroides); assay: as above
Outline: as §1

[24] = system: barnyardgrass (Echinochloa crus-galli); assay: as above
Outline: as §1

[25] = system: barnyardgrass (Echinochloa crusgalli); assay: Test B flooded paddy test, visual plant response rating 0-100; settings: 250 g ai/ha, Flood, applied to paddy water, evaluated after 13 days
Outline: (§2)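 Treatment occurs at the 2-leaf stage by adding compound to floodwater standing 3 cm above the soil, a level kept for the whole test. Plants stay in the greenhouse 13 days before visual comparison with controls.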

[26] = system: rice (Oryza sativa); assay: as above; settings: 250 g ai/ha, Flood, applied to paddy water, evaluated after 13 days
Outline: as §2

[27] = system: ducksalad (Heteranthera limosa); assay: as above; settings: 250 g ai/ha, Flood, applied to paddy water, evaluated after 13 days
Outline: as §2

[28] = system: sedge, umbrella (small-flower umbrella sedge, Cyperus difformis); assay: as above; settings: 250 g ai/ha, Flood, applied to paddy water, evaluated after 13 days
Outline: as §2

[29] = 62 g ai/ha, 0 = no effect, 100 = complete control
[30] = 62 g ai/ha, postemergence, 10 days, 0 = no effect, 100 = complete control
[31] = Postemergence, 16 g ai/ha, greenhouse 10 days, 0 no effect, 100 complete control

## CC(C)OC(=O)C1=CCC(NC(=O)C2(C)CN(c3cc(F)cc(F)c3)C(=O)O2)C1 (stereo not shown) [Compound 100]
[1]; 16 g ai/ha, 0 to 100 scale
  Oat, Wild plant response rating: 0
[1]; [29]
  Oat, Wild plant response rating (0-100): 0
[2]; 16 g ai/ha, 0 to 100 scale
  Corn plant response rating: 30
[2]; [29]
  Corn plant response rating (0-100): 30
[3]; 16 g ai/ha, 0 to 100 scale
  Pigweed, Palmer plant response rating: 90
[3]; [29]
  Pigweed, Palmer plant response rating (0-100): 100
[4]; 16 g ai/ha, 0 to 100 scale
  Ragweed plant response rating: 0
[4]; [29]
  Ragweed plant response rating (0-100): 0
[5]; 16 g ai/ha, 0 to 100 scale
  Ryegrass, Italian plant response rating: 60
[5]; [29]
  Ryegrass, Italian plant response rating (0-100): 80
[6]; 16 g ai/ha, 0 to 100 scale
  Kochia plant response rating: 0
[6]; [29]
  Kochia plant response rating (0-100): 100
[7]; 16 g ai/ha, 0 to 100 scale
  Soybean plant response rating: 0
[7]; [29]
  Soybean plant response rating (0-100): 40
[8]; 16 g ai/ha, 0 to 100 scale
  Foxtail, Green plant response rating: 80
[8]; [29]
  Foxtail, Green plant response rating (0-100): 100
[9]; 16 g ai/ha, 0 to 100 scale
  Wheat plant response rating: 50
[9]; [29]
  Wheat plant response rating (0-100): 90
[10]; 16 g ai/ha, 0 to 100 scale
  Blackgrass plant response rating: 0
[10]; [29]
  Blackgrass plant response rating (0-100): 60
[11]; 16 g ai/ha, 0 to 100 scale
  Barnyardgrass plant response rating: 30
[11]; [29]
  Barnyardgrass plant response rating (0-100): 100
[12]; [30]
  Oat, Wild plant response rating (0-100): 100
[12]; [31]
  Oat, Wild plant response rating (0 to 100 scale): 70
[13]; [30]
  Corn plant response rating (0-100): 100
[13]; [31]
  Corn plant response rating (0 to 100 scale): 100
[14]; [30]
  Galium plant response rating (0-100): 90
[14]; [31]
  Galium plant response rating (0 to 100 scale): 70
[15]; [30]
  Pigweed, Palmer plant response rating (0-100): 80
[15]; [31]
  Pigweed, Palmer plant response rating (0 to 100 scale): 20
[16]; [30]
  Ragweed plant response rating (0-100): 40
[16]; [31]
  Ragweed plant response rating (0 to 100 scale): 0
[17]; [30]
  Ryegrass, Italian plant response rating (0-100): 90
[17]; [31]
  Ryegrass, Italian plant response rating (0 to 100 scale): 70
[18]; [30]
  Kochia plant response rating (0-100): 90
[18]; [31]
  Kochia plant response rating (0 to 100 scale): 80
[19]; [30]
  Soybean plant response rating (0-100): 70
[19]; [31]
  Soybean plant response rating (0 to 100 scale): 60
[20]; [30]
  Horseweed plant response rating (0-100): 40
[20]; [31]
  Horseweed plant response rating (0 to 100 scale): 0
[21]; [30]
  Foxtail, Green plant response rating (0-100): 90
[21]; [31]
  Foxtail, Green plant response rating (0 to 100 scale): 80
[22]; [30]
  Wheat plant response rating (0-100): 80
[22]; [31]
  Wheat plant response rating (0 to 100 scale): 70
[23]; [30]
  Blackgrass plant response rating (0-100): 90
[23]; [31]
  Blackgrass plant response rating (0 to 100 scale): 60
[24]; [30]
  Barnyardgrass plant response rating (0-100): 100
[24]; [31]
  Barnyardgrass plant response rating (0 to 100 scale): 50
[25]
  Plant response rating, Barnyardgrass (0 to 100 scale, 0 is no effect and 100 is complete control): 70
[26]
  Plant response rating, Rice (0 to 100 scale, 0 is no effect and 100 is complete control): 70
[27]
  Plant response rating, Ducksalad (0 to 100 scale, 0 is no effect and 100 is complete control): 75
[28]
  Plant response rating, Sedge, Umbrella (0 to 100 scale, 0 is no effect and 100 is complete control): 95

Source: patent US20260285850A1, “SUBSTITUTED OXAZOLIDINONES AND IMIDAZOLINONES AS HERBICIDES” (FMC CORPORATION, priority 2023, published 2026)
